Source: ChEMBL document CHEMBL1147763, “Synthesis and biological activities of nucleoside-estradiol conjugates” (Bioorg Med Chem Lett, 2006)

Assays:
MCF7 = assay: Cytotoxicity against human breast cancer MCF7 cell line expressing ER; type: functional, cell-based
MDA-MB-231 = assay: Cytotoxicity against human breast cancer MDA-MB-231 cell line lacking ER; type: functional, cell-based
[1] = Cell survival against human breast cancer MCF7 cell line after 72h at 10 uM; type: ADME, cell-based; settings: MCF7 breast cancer cells, read-out: Activity
[2] = Cell survival against human breast cancer MDA-MB-231 cell line after 72h at 10 uM; type: ADME, cell-based; settings: MDA-MB-231 breast cancer cells, read-out: Activity

| Compound | Activity (MCF7) | Activity (MDA-MB-231) | viability at 72 h, 10 µM [1] [%] | viability at 72 h, 10 µM [2] [%] |
| --- | --- | --- | --- | --- |
| Cn1cc(C#C[C@]2(O)CC[C@H]3[C@@H]4CCc5cc(O)ccc5[C@H]4CC[C@@]32C)c(=O)n(C)c1=O | Not toxic | Not toxic |  |  |
| C[C@]12CC[C@@H]3c4ccc(O)cc4CC[C@H]3[C@@H]1CC[C@@]2(O)C#Cc1nc2c(N)ncnc2n1[C@H]1O[C@@H](CO)[C@H](O)[C@@H]1O | Not toxic | Not toxic |  |  |
| C[C@]12CC[C@@H]3c4ccc(O)cc4CC[C@H]3[C@@H]1CC[C@@]2(O)C#CCCCCC#Cc1cn([C@H]2C[C@H](O)[C@@H](CO)O2)c(=O)[nH]c1=O | Not toxic | Not toxic |  |  |
| C[C@]12CC[C@@H]3c4ccc(O)cc4CC[C@H]3[C@@H]1CC[C@@]2(O)C#CCCCCC#Cc1cnc(O)nc1O | Not toxic | Not toxic |  |  |
| C[C@]12CC[C@@H]3c4ccc(O)cc4CC[C@H]3[C@@H]1CC[C@@]2(O)C#Cc1cn([C@H]2C[C@H](O)[C@@H](CO)O2)c(=O)[nH]c1=O | Not toxic | Not toxic |  |  |
| C[C@]12CC[C@@H]3c4ccc(O)cc4CC[C@H]3[C@@H]1CC[C@@]2(O)C#CCCCCC#Cc1cn([C@@H]2O[C@H](CO)[C@@H](O)[C@H]2O)c(=O)[nH]c1=O | Not toxic | Not toxic |  |  |
| C[C@]12CC[C@@H]3c4ccc(O)cc4CC[C@H]3[C@@H]1CC[C@@]2(O)C#Cc1cnc(O)nc1O | Not toxic | Not toxic |  |  |
| C[C@]12CC[C@@H]3c4ccc(O)cc4CC[C@H]3[C@@H]1CC[C@@H]2O | Not toxic | Not toxic |  |  |
| CC/C(=C(\c1ccccc1)c1ccc(OCCN(C)C)cc1)c1ccccc1 [TAMOXIFEN] |  |  | 72 |  |
| O=c1[nH]cc(F)c(=O)[nH]1 [FLUOROURACIL] |  |  | 40 | 67 |
| Cn1cc(C#CCCCCC#C[C@]2(O)CC[C@H]3[C@@H]4CCc5cc(O)ccc5[C@H]4CC[C@@]32C)c(=O)n(C)c1=O | Not toxic | Not toxic |  |  |
